Reference: PubChem BioAssay AID330 (DTP/NCI, 2004)
Several values for one entry are separate records, joined by “and”; a condition that tells them apart may be missing. Equal entries are not always repeated. Toxic doses and inconclusive results are not listed. The calls were made as follows: active = survival T/C of 150% or more; inactive = T/C below 125% in these data.

System: P388 leukemia ip, CD2F1 mice, survival T/C
Test: NCI In Vivo Anticancer Drug Screen. Data for tumor model P388 Leukemia (intraperitoneal) in CD2F1 (CDF1) mice
Settings: endpoint: median survival time, higher = longer survival
Procedure, shortened: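 Mice carrying the transplanted tumor received test compound or vehicle. Survival was recorded in each group, and the value is the treated-group measurement divided by that of the vehicle-treated control group.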

[1] = dose: 50.0 mg/kg/injection, schedule: Q01DX009 (ip), vehicle: saline
[2] = dose: 100.0 mg/kg/injection, schedule: Q01DX009 (ip), vehicle: saline
[3] = dose: 25.0 mg/kg/injection, schedule: Q01DX009 (ip), vehicle: saline with Tween-80
[4] = dose: 100.0 mg/kg/injection, schedule: Q04DX002 (ip), vehicle: saline with Tween-80
[5] = dose: 200.0 mg/kg/injection, schedule: Q04DX002 (ip), vehicle: saline with Tween-80
[6] = dose: 400.0 mg/kg/injection, schedule: Q04DX002 (ip), vehicle: saline with Tween-80
[7] = dose: 60.0 mg/kg/injection, schedule: Q01DX005 (ip), vehicle: Klucel (hydroxypropylcellulose) (HPC)
[8] = dose: 120.0 mg/kg/injection, schedule: Q01DX005 (ip), vehicle: Klucel (hydroxypropylcellulose) (HPC)
[9] = dose: 240.0 mg/kg/injection, schedule: Q01DX005 (ip), vehicle: Klucel (hydroxypropylcellulose) (HPC)
[10] = dose: 50.0 mg/kg/injection, schedule: Q01DX005 (ip), vehicle: Klucel (hydroxypropylcellulose) (HPC)
[11] = dose: 100.0 mg/kg/injection, schedule: Q01DX009 (ip), vehicle: saline with Tween-80
[12] = dose: 50.0 mg/kg/injection, schedule: Q01DX009 (ip), vehicle: saline with Tween-80
[13] = dose: 200.0 mg/kg/injection, schedule: Q01DX009 (ip), vehicle: saline with Tween-80
[14] = dose: 60.0 mg/kg/injection, schedule: Q01DX005 (ip), vehicle: saline with Tween-80
[15] = dose: 12.5 mg/kg/injection, schedule: Q04DX003 (ip), vehicle: saline with Tween-80
[16] = dose: 25.0 mg/kg/injection, schedule: Q04DX003 (ip), vehicle: saline with Tween-80
[17] = dose: 50.0 mg/kg/injection, schedule: Q04DX003 (ip), vehicle: saline with Tween-80

Measured: T/C

Clc1ccnc2ccc3ncccc3c12
inactive: dose: 3.12 mg/kg/injection, schedule: Q04DX002 (ip), vehicle: saline with Tween-80 113 % of control | dose: 6.25 mg/kg/injection, schedule: Q04DX002 (ip), vehicle: saline with Tween-80 103 % of control | dose: 12.5 mg/kg/injection, schedule: Q04DX002 (ip), vehicle: saline with Tween-80 100 % of control

Cc1ccc(S(=O)(=O)C(CC(=O)CCN(C)C)c2ccccc2)cc1 (stereo unspecified)
inactive: dose: 25.0 mg/kg/injection, schedule: Q04DX002 (ip), vehicle: saline 100 % of control | [1] 96 % of control | dose: 50.0 mg/kg/injection, schedule: Q04DX002 (ip), vehicle: saline 103 % of control and 95 % of control | [2] 102 % of control | dose: 100.0 mg/kg/injection, schedule: Q04DX002 (ip), vehicle: saline 100 % of control | dose: 200.0 mg/kg/injection, schedule: Q04DX002 (ip), vehicle: saline 100 % of control

O=C(N=Nc1c(O)[nH]c2c(Cl)cc(Cl)cc12)C(=O)Nc1cccc(C(F)(F)F)c1
inactive: dose: 6.25 mg/kg/injection, schedule: Q01DX009 (ip), vehicle: saline with Tween-80 95 % of control | dose: 12.5 mg/kg/injection, schedule: Q01DX009 (ip), vehicle: saline with Tween-80 93 % of control | [3] 95 % of control

COc1cccc(C(O)c2ccncc2C)c1OC (stereo unspecified)
inactive: dose: 12.5 mg/kg/injection, schedule: Q01DX009 (ip), vehicle: water 100 % of control | dose: 25.0 mg/kg/injection, schedule: Q01DX009 (ip), vehicle: water 99 % of control | dose: 50.0 mg/kg/injection, schedule: Q01DX009 (ip), vehicle: water 100 % of control | dose: 100.0 mg/kg/injection, schedule: Q01DX009 (ip), vehicle: water 99 % of control | dose: 200.0 mg/kg/injection, schedule: Q01DX009 (ip), vehicle: water 99 % of control

Cc1c(-c2cccc(Cl)n2)nc2ccccc2c1C(=O)O
inactive: [4] 99 % of control | [5] 99 % of control | [6] 99 % of control

CSC(=S)n1nc(-c2ccccc2)c(N=Nc2cccc(C)c2C)c1C
inactive: [4] 88 % of control | [5] 90 % of control | [6] 112 % of control

CCOC(=O)/C=C1\CSC2=NC(c3ccccc3)CN21 (stereo unspecified)
inactive: [7] 94 % of control | [8] 94 % of control | [9] 86 % of control

OCC1N2CCC(CC2)C1(O)O (stereo unspecified)
inactive: dose: 100.0 mg/kg/injection, schedule: Q04DX003 (ip), vehicle: suspension in saline 96 % of control | dose: 200.0 mg/kg/injection, schedule: Q04DX003 (ip), vehicle: suspension in saline 100 % of control | dose: 400.0 mg/kg/injection, schedule: Q04DX003 (ip), vehicle: suspension in saline 106 % of control

CC1=CC(=O)c2c(O)c3c(c(O)c2C1=O)C1C(O)C(C3=O)C23C(=O)c4c(O)c(C)cc(O)c4C(O)=C2C(=O)CC(O)C13 (stereo unspecified)
inactive: dose: 1.5 mg/kg/injection, schedule: Q01DX005 (ip), vehicle: Klucel (hydroxypropylcellulose) (HPC) 101 % of control | dose: 3.0 mg/kg/injection, schedule: Q01DX005 (ip), vehicle: Klucel (hydroxypropylcellulose) (HPC) 115 % of control | dose: 6.0 mg/kg/injection, schedule: Q01DX005 (ip), vehicle: Klucel (hydroxypropylcellulose) (HPC) 115 % of control | dose: 12.0 mg/kg/injection, schedule: Q01DX005 (ip), vehicle: Klucel (hydroxypropylcellulose) (HPC) 113 % of control | dose: 12.5 mg/kg/injection, schedule: Q01DX005 (ip), vehicle: Klucel (hydroxypropylcellulose) (HPC) 108 % of control | dose: 25.0 mg/kg/injection, schedule: Q01DX005 (ip), vehicle: Klucel (hydroxypropylcellulose) (HPC) 105 % of control | [10] 105 % of control

S=C1Cc2[nH]c(=S)sc(=S)c2C(=S)N1
inactive: [11] 87 % of control

COC(=O)/C(C#N)=C/c1cccnc1
inactive: [10] 101 % of control | dose: 100.0 mg/kg/injection, schedule: Q01DX005 (ip), vehicle: Klucel (hydroxypropylcellulose) (HPC) 101 % of control | dose: 200.0 mg/kg/injection, schedule: Q01DX005 (ip), vehicle: Klucel (hydroxypropylcellulose) (HPC) 107 % of control

C[C@]12CC[C@H](O)CC1CC[C@@H]1C2CC[C@]2(C)NC(=O)CCC12 (stereo partly specified)
inactive: dose: 100.0 mg/kg/injection, schedule: Q01DX001 (ip), vehicle: saline with Tween-80 108 % of control | dose: 200.0 mg/kg/injection, schedule: Q01DX001 (ip), vehicle: saline with Tween-80 108 % of control | dose: 400.0 mg/kg/injection, schedule: Q01DX001 (ip), vehicle: saline with Tween-80 120 % of control

COC(=O)C1CSC(c2c(COP(=O)(O)O)cnc(C)c2O)N1 (stereo unspecified)
inactive: dose: 100.0 mg/kg/injection, schedule: Q01DX001 (ip), vehicle: saline 103 % of control | dose: 200.0 mg/kg/injection, schedule: Q01DX001 (ip), vehicle: saline 105 % of control | dose: 400.0 mg/kg/injection, schedule: Q01DX001 (ip), vehicle: saline 96 % of control

CCN(CC)P(=O)(c1cccn1C)c1cccn1C
inactive: [12] 100 % of control | [11] 102 % of control | [13] 97 % of control

O=C(Cc1cccc(CC(=O)c2ccccc2)n1)c1ccccc1
inactive: dose: 15.0 mg/kg/injection, schedule: Q01DX005 (ip), vehicle: saline with Tween-80 108 % of control | dose: 30.0 mg/kg/injection, schedule: Q01DX005 (ip), vehicle: saline with Tween-80 92 % of control | [14] 92 % of control and 93 % of control

N#Cc1c(F)cccc1N1CCSCC1
inactive: [7] 109 % of control | [8] 93 % of control | [9] 89 % of control

C=C1C(=O)OC2C3CCC2C1C3 (stereo unspecified)
inactive: [15] 101 % of control | [16] 115 % of control | [17] 100 % of control

COc1cc2c(cc1OC)C13CCCC4(OCCO4)C1=CC2(C)O3 (stereo unspecified)
inactive: [12] 101 % of control | [11] 94 % of control | [13] 93 % of control

OC1C(c2ccccc2)=C(c2ccccc2)C2(c3ccccc3)CC12c1ccccc1 (stereo unspecified)
inactive: [15] 93 % of control | [16] 117 % of control | [17] 88 % of control

CC1=C(CO)C(=O)OC(C(C)C2CCC3C4CC5OC56C(O)C(N5CCCCCC5)CC(=O)C6(C)C4CCC23C)C1 (stereo unspecified)
inactive: dose: 9.38 mg/kg/injection, schedule: Q01DX005 (ip), vehicle: Klucel (hydroxypropylcellulose) (HPC) 101 % of control | dose: 18.75 mg/kg/injection, schedule: Q01DX005 (ip), vehicle: Klucel (hydroxypropylcellulose) (HPC) 101 % of control | dose: 37.5 mg/kg/injection, schedule: Q01DX005 (ip), vehicle: Klucel (hydroxypropylcellulose) (HPC) 105 % of control | dose: 75.0 mg/kg/injection, schedule: Q01DX005 (ip), vehicle: Klucel (hydroxypropylcellulose) (HPC) 105 % of control | dose: 150.0 mg/kg/injection, schedule: Q01DX005 (ip), vehicle: Klucel (hydroxypropylcellulose) (HPC) 104 % of control

CC(C)CN1CCOCC1
inactive: dose: 25.0 mg/kg/injection, schedule: Q01DX009 (ip), vehicle: saline 100 % of control | [1] 95 % of control | [2] 104 % of control

O=C(c1ccc(Cl)cc1)c1no[n+]([O-])c1C(=O)c1ccc(Cl)cc1
inactive: [3] 115 % of control | [12] 111 % of control | [13] 118 % of control

CC1(C)CC(=O)NC(=O)N1
inactive: dose: 50.0 mg/kg/injection, schedule: Q01DX005 (ip), vehicle: saline with Tween-80 99 % of control | dose: 100.0 mg/kg/injection, schedule: Q01DX005 (ip), vehicle: saline with Tween-80 94 % of control | dose: 200.0 mg/kg/injection, schedule: Q01DX005 (ip), vehicle: saline with Tween-80 104 % of control

ClCC1CSC(c2ccc3c(c2)OCO3)O1 (stereo unspecified)
inactive: [12] 101 % of control and 96 % of control | [11] 121 % of control and 91 % of control | [13] 98 % of control

CC(C)C(=O)NCCCCCCN1CCCCC1
inactive: dose: 50.0 mg/kg/injection, schedule: Q01DX005 (ip), vehicle: saline 96 % of control | dose: 100.0 mg/kg/injection, schedule: Q01DX005 (ip), vehicle: saline 100 % of control

O=c1[nH]cnc2nc(N3CCN(c4ccccc4)CC3)sc12
inactive: [14] 87 % of control | dose: 120.0 mg/kg/injection, schedule: Q01DX005 (ip), vehicle: saline with Tween-80 87 % of control | dose: 240.0 mg/kg/injection, schedule: Q01DX005 (ip), vehicle: saline with Tween-80 87 % of control
